From ChEMBL document CHEMBL1123971, “Synthesis, platelet aggregation inhibitory activity, and in vivo antithrombotic activity of new 1,4-dihydropyridines” (J Med Chem, 1988)

Experiments:
[1] = system: Felis catus; assay: Effect of intraperitoneal infusion on respiration frequency in Anesthetized cats at a dose of 200 mg/kg at 120 min; type: functional
[2] = system: Felis catus; assay: Effect of intravenous infusion on cardiac frequency in Anesthetized cats at a dose of 0.30 mg/kg at 2 min; type: functional, Heart; conditions: dose 0.3 mg/kg
[3] = system: Felis catus; assay: Effect of intraperitoneal infusion on diastolic pressure in Anesthetized cats at a dose of 200 mg/kg at 30 min; type: functional
[4] = system: Felis catus; assay: Effect of intraperitoneal infusion on respiration frequency in Anesthetized cats at a dose of 200 mg/kg at 60 min; type: functional
[5] = system: Felis catus; assay: Effect of intravenous infusion on systolic pressure in Anesthetized cats at a dose of 0.75 mg/kg at 5 min; type: functional
[6] = system: Felis catus; assay: Effect of intravenous infusion on cardiac frequency in Anesthetized cats at a dose of 3 mg/kg at 20 min; type: functional, Heart
[7] = system: Felis catus; assay: Effect of intravenous infusion on cardiac frequency in Anesthetized cats at a dose of 0.75 mg/kg at 5 min; type: functional, Heart
[8] = species on record: Cavia porcellus; assay: Effect on guinea pig artia (beats/min), at the a dose of 10e-9 M; type: functional

CCO/C(O)=C1\C(C)=NC(C)=C(C(=O)OCCN2C(=O)c3ccccc3S2(=O)=O)C1C (centres undefined)
Respiratory frequency [1]: 13 r.p.m.
Cardiac frequency [2]: 190 beats min-1
Arterial pressure [3]: 90 mmHg
Respiratory frequency [4]: 13 r.p.m.
Arterial pressure [5]: 162 mmHg
Cardiac frequency [6]: 216 beats min-1
Cardiac frequency [7]: 195 beats min-1
Beats/min [8]: 193
Control [8]: 105.6%
